Measured values as given in article PMC5458547, “Discovery of first-in-class reversible dual small molecule inhibitors against G9a and DNMTs in hematological malignancies” (Nature Communications, 2017).

Assays:
[1] = target: T1, CDK11 (Homo sapiens, UniProt Q9BWU1); assay: KINOMEscan kinase profiling; format: binding; conditions: read-out: Percent Control
T1 construct: purchased DiscoverX KINOMEscan (kinases); BPS Bioscience (epigenetic targets)
Protocol: precipitate the proteins. The mixture was then agitated for 5 min and centrifuged at 13200 rpm for 10 min at 4 °C. A 5 µL aliquot of the resulting supernatant was injected onto the LC-MS/MS system for analysis.
Frozen plasma samples were thawed at room temperature, vortexed thoroughly and subjected to the above described extraction procedure.
The pharmacokinetic parameters were obtained by fitting the blood concentration-time data to a non-compartmental model with the WinNonlin software (Pharsight, Mountain View, CA). […]
concentration-time profile for a dosing regimen of 2.5 mg/kg administered intravenously every 24 h for 3 weeks was simulated with Winnonlin.
(§1) Kinase Selectivity Profiling
(§2) (out of which 90 are non-mutant kinases) was performed at DiscoverRx (http://www.discoverx.com/home) using the KINOMEscan™ screening platform at a test concentration of 10 µM. Results for primary screen […]
(§3) positive control signal) / (negative control signal – positive control signal) *100, where negative control corresponds to DMSO treatment (100%) and positive control to the signal obtained with a control competitive compound (0%). […]
using the Hill equation. […]
MicroScale Thermophoresis (MST) was performed to quantify biomolecular interactions between CM-579 and DNMT1 (full length). […]
Cell proliferation was analyzed using the CellTiter 96 Aqueous One Solution Cell Proliferation Assay (Promega, Madison, W). […]

[2] = target: T2, TRKA (Homo sapiens, UniProt P04629); assay: KINOMEscan kinase profiling; format: binding
T2 construct: purchased DiscoverRx (DiscoverX), KINOMEscan screening platform
Protocol: as §1, §2, §3
(§4) using the Hill equation. Each target was assayed in duplicate. […]

[3] = target: T3, VEGFR2 (Homo sapiens, UniProt P35968); assay: KINOMEscan kinase profiling; format: binding; conditions: read-out: Percent Control
T3 construct: purchased DiscoverX KINOMEscan (kinases); BPS Bioscience (epigenetic targets)
Protocol: as §1, §2, §3, §4

[4] = target: T4, ABL1(E255K)-phosphorylated (Homo sapiens, UniProt P00519, E255K); assay: KINOMEscan kinase profiling; format: binding; conditions: read-out: Percent Control
T4 construct: purchased DiscoverX KINOMEscan (kinases); BPS Bioscience (epigenetic targets)
Protocol: as §1, §2, §3, §4

[5] = target: T5, KIT(D816V) (Homo sapiens, UniProt P10721, D816V); assay: KINOMEscan kinase profiling; format: binding; conditions: read-out: Percent Control
T5 construct: purchased DiscoverX KINOMEscan (kinases); BPS Bioscience (epigenetic targets)
Protocol: as §1, §2, §3, §4

[6] = target: T6, ACVR1B (Homo sapiens, UniProt P36896); assay: KINOMEscan kinase profiling; format: binding; conditions: read-out: Percent Control
T6 construct: purchased DiscoverX KINOMEscan (kinases); BPS Bioscience (epigenetic targets)
Protocol: as §1, §2, §3, §4

[7] = target: T7, ERK1 (Homo sapiens, UniProt P27361); assay: KINOMEscan kinase profiling; format: binding; conditions: read-out: Percent Control
T7 construct: purchased DiscoverX KINOMEscan (kinases); BPS Bioscience (epigenetic targets)
Protocol: as §1, §2, §3, §4

[8] = target: T8, DCAMKL1 (Homo sapiens, UniProt O15075); assay: KINOMEscan kinase profiling; format: binding; conditions: read-out: Percent Control
T8 construct: purchased DiscoverX KINOMEscan (kinases); BPS Bioscience (epigenetic targets)
Protocol: as §1, §2, §3, §4

[9] = target: T9, MLK1 (Homo sapiens, UniProt P80192); assay: KINOMEscan kinase profiling; format: binding; conditions: read-out: Percent Control
T9 construct: purchased DiscoverX KINOMEscan (kinases); BPS Bioscience (epigenetic targets)
Protocol: as §1, §2, §3, §4

[10] = target: T10, CDK9 (Homo sapiens, UniProt P50750); assay: KINOMEscan kinase profiling; format: binding; conditions: read-out: Percent Control
T10 construct: purchased DiscoverX KINOMEscan (kinases); BPS Bioscience (epigenetic targets)
Protocol: as §1, §2, §3, §4

[11] = target: T11, MET (Homo sapiens, UniProt P08581); assay: KINOMEscan kinase profiling; format: binding; conditions: read-out: Percent Control
T11 construct: purchased DiscoverX KINOMEscan (kinases); BPS Bioscience (epigenetic targets)
Protocol: as §1, §2, §3, §4

[12] = target: T12, p38-alpha (Homo sapiens, UniProt Q16539); assay: KINOMEscan kinase profiling; format: binding; conditions: read-out: Percent Control
T12 construct: purchased DiscoverX KINOMEscan (kinases); BPS Bioscience (epigenetic targets)
Protocol: as §1, §2, §3, §4

[13] = target: T13, AXL (Homo sapiens, UniProt P30530); assay: KINOMEscan kinase profiling; format: binding; conditions: read-out: Percent Control
T13 construct: purchased DiscoverX KINOMEscan (kinases); BPS Bioscience (epigenetic targets)
Protocol: as §1, §2, §3, §4

[14] = target: T14, KIT (Homo sapiens, UniProt P10721); assay: KINOMEscan kinase profiling; format: binding; conditions: read-out: Percent Control
T14 construct: purchased DiscoverX KINOMEscan (kinases); BPS Bioscience (epigenetic targets)
Protocol: as §1, §2, §3, §4

[15] = target: T15, CSNK1G2 (Homo sapiens, UniProt P78368); assay: KINOMEscan kinase profiling; format: binding; conditions: read-out: Percent Control
T15 construct: purchased DiscoverX KINOMEscan (kinases); BPS Bioscience (epigenetic targets)
Protocol: as §1, §2, §3, §4

[16] = target: T16, PLK1 (Homo sapiens, UniProt P53350); assay: KINOMEscan kinase profiling; format: binding; conditions: read-out: Percent Control
T16 construct: purchased DiscoverX KINOMEscan (kinases); BPS Bioscience (epigenetic targets)
Protocol: as §1, §2, §3, §4

[17] = target: T17, CDK7 (Homo sapiens, UniProt P50613); assay: KINOMEscan kinase profiling; format: binding; conditions: read-out: Percent Control
T17 construct: purchased DiscoverX KINOMEscan (kinases); BPS Bioscience (epigenetic targets)
Protocol: as §1, §2, §3, §4

[18] = target: T18, PIK3C2B (Homo sapiens, UniProt O00750); assay: KINOMEscan kinase profiling; format: binding; conditions: read-out: Percent Control
T18 construct: purchased DiscoverX KINOMEscan (kinases); BPS Bioscience (epigenetic targets)
Protocol: as §1, §2, §3, §4

[19] = target: T19, DYRK1B (Homo sapiens, UniProt Q9Y463); assay: KINOMEscan kinase profiling; format: binding; conditions: read-out: Percent Control
T19 construct: purchased DiscoverX KINOMEscan (kinases); BPS Bioscience (epigenetic targets)
Protocol: as §1, §2, §3, §4

[20] = target: T20, CSF1R (Homo sapiens, UniProt P07333); assay: KINOMEscan kinase profiling; format: binding; conditions: read-out: Percent Control
T20 construct: purchased DiscoverX KINOMEscan (kinases); BPS Bioscience (epigenetic targets)
Protocol: as §1, §2, §3, §4

[21] = target: T21, ROCK2 (Homo sapiens, UniProt O75116); assay: KINOMEscan kinase profiling; format: binding
T21 construct: purchased DiscoverRx (DiscoverX), KINOMEscan screening platform
Protocol: as §1, §2, §3, §4

[22] = target: T22, PAK2 (Homo sapiens, UniProt Q13177); assay: KINOMEscan kinase profiling; format: binding; conditions: read-out: Percent Control
T22 construct: purchased DiscoverX KINOMEscan (kinases); BPS Bioscience (epigenetic targets)
Protocol: as §1, §2, §3, §4

[23] = target: T23, SRPK3 (Homo sapiens, UniProt Q9UPE1); assay: KINOMEscan kinase profiling; format: binding; conditions: read-out: Percent Control
T23 construct: purchased DiscoverX KINOMEscan (kinases); BPS Bioscience (epigenetic targets)
Protocol: as §1, §2, §3, §4

[24] = target: T24, CSNK1D (Homo sapiens, UniProt P48730); assay: KINOMEscan kinase profiling; format: binding; conditions: read-out: Percent Control
T24 construct: purchased DiscoverX KINOMEscan (kinases); BPS Bioscience (epigenetic targets)
Protocol: as §1, §2, §3, §4

[25] = target: T25, PIM3 (Homo sapiens, UniProt Q86V86); assay: KINOMEscan kinase profiling; format: binding; conditions: read-out: Percent Control
T25 construct: purchased DiscoverX KINOMEscan (kinases); BPS Bioscience (epigenetic targets)
Protocol: as §1, §2, §3, §4

[26] = tested on: UM-UC-1; assay: Cell proliferation assay (MTS); format: cell-based; conditions: Homo sapiens; Bladder
[27] = target: T26, BRD1 (Homo sapiens, UniProt O95696); assay: Epigenetics selectivity panel (BPS Bioscience); format: binding
T26 construct: purchased DiscoverX KINOMEscan (kinases); BPS Bioscience (epigenetic targets)

[28] = tested on: NP18; assay: Cell proliferation assay (MTS); format: cell-based; conditions: Homo sapiens; Pancreas
[29] = 10 µM, read-out: Percent Control

T21 sequence (O75116 whole entry): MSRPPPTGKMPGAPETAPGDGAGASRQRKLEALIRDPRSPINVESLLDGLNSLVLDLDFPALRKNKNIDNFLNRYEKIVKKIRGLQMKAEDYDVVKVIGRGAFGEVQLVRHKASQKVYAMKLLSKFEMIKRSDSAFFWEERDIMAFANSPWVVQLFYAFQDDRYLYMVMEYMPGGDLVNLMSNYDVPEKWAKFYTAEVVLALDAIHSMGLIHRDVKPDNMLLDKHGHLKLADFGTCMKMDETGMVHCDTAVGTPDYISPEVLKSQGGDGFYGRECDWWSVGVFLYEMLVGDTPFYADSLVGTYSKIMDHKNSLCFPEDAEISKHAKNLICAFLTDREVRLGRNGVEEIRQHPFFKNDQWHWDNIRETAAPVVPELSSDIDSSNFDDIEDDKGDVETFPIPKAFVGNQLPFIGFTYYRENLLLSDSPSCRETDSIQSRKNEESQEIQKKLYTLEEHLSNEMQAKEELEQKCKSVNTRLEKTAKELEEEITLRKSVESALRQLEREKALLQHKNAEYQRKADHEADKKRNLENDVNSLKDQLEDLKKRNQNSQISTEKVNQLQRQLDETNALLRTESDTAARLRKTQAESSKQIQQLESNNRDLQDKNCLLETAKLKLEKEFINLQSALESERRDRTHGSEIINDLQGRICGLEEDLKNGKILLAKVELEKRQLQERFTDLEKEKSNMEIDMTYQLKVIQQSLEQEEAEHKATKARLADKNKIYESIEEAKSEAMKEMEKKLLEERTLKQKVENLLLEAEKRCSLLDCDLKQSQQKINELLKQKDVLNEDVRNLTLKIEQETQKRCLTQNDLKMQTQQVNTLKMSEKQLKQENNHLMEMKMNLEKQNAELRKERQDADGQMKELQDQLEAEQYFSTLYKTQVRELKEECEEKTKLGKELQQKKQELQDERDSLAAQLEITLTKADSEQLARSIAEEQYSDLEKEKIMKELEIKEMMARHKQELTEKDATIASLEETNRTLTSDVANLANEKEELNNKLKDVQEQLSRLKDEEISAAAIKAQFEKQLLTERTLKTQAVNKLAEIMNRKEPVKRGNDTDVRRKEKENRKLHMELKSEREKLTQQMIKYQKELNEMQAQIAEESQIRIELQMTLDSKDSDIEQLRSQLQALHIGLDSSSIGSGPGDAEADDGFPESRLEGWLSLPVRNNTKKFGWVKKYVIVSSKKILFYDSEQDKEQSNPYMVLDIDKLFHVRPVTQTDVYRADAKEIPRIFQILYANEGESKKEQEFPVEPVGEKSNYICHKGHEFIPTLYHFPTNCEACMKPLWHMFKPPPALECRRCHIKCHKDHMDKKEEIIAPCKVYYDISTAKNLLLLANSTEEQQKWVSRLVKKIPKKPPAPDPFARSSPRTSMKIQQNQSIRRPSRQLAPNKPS
T2 sequence (P04629 33-796): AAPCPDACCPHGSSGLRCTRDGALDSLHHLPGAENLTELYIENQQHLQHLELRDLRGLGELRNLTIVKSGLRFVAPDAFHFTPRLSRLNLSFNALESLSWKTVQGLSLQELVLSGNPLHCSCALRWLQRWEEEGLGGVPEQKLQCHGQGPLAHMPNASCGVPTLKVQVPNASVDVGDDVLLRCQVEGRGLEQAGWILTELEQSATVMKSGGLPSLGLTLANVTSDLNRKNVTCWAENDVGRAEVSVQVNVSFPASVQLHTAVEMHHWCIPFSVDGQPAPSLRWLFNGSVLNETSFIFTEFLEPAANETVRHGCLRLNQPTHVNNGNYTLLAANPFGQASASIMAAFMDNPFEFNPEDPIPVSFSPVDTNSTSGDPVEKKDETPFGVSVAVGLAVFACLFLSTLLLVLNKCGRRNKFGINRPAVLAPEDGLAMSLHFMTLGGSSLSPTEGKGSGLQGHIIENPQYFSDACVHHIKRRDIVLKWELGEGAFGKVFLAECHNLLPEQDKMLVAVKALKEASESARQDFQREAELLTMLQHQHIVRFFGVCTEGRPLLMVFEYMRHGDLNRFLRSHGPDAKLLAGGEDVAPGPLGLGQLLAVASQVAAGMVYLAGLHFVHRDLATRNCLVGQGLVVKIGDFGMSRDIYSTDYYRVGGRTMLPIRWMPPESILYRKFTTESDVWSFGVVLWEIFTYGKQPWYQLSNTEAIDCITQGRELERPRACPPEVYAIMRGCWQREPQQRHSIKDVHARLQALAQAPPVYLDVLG
T23 sequence (Q9UPE1 whole entry): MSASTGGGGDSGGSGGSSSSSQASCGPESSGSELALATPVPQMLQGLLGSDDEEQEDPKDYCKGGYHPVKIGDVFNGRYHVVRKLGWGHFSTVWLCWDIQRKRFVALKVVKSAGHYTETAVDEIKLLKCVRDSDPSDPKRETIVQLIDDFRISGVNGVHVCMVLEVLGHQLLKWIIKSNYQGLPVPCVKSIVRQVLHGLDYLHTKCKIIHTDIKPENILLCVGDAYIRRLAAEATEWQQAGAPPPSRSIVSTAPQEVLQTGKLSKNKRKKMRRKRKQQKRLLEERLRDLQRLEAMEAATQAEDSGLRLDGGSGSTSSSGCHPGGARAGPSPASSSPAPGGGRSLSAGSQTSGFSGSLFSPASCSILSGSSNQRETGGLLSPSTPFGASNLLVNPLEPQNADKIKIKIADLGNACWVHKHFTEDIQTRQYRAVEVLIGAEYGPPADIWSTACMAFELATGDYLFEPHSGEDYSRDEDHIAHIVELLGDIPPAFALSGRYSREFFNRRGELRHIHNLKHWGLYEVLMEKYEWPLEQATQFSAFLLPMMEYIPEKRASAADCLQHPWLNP
T19 sequence (Q9Y463 whole entry): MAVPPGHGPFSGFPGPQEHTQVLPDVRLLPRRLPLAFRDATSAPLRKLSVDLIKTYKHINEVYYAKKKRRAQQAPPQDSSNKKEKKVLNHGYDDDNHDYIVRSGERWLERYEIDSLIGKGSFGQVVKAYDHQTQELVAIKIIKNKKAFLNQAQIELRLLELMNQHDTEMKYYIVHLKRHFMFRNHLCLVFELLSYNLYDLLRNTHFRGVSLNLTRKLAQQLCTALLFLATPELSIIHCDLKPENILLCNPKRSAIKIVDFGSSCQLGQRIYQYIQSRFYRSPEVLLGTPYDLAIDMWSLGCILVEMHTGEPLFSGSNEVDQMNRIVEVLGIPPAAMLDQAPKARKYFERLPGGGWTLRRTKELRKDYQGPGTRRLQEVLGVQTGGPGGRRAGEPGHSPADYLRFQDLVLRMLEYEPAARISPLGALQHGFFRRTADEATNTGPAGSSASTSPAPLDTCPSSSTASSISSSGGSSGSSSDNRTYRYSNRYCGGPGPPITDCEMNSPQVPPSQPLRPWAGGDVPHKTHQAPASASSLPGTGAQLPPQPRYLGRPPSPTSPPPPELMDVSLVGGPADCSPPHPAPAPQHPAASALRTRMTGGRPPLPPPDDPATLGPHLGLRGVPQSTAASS
T20 sequence (P07333 20-972): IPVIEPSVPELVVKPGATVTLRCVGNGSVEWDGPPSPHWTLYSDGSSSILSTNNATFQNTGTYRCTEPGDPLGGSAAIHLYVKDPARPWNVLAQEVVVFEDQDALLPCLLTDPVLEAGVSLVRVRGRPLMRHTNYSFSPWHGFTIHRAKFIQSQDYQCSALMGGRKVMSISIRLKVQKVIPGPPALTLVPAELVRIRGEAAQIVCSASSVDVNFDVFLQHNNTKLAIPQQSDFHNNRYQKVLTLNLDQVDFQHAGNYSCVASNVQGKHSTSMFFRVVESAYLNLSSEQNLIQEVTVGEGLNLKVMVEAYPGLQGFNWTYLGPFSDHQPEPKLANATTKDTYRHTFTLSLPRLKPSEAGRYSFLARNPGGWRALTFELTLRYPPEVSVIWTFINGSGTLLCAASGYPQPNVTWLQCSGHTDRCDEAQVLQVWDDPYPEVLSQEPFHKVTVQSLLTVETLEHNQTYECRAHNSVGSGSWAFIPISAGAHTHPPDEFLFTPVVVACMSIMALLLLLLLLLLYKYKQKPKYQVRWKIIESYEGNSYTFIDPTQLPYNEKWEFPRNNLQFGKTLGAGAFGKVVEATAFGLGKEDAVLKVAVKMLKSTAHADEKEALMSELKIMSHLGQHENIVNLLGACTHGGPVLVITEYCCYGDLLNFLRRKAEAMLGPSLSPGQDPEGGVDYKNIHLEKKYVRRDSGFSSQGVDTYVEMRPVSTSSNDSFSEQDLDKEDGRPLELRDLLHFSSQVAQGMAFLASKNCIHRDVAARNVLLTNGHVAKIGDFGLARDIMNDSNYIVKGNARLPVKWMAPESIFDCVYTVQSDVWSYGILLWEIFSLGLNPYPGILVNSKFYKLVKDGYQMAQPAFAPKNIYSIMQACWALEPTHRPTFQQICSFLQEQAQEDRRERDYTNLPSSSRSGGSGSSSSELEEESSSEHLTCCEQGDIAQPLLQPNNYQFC
T16 sequence (P53350 whole entry): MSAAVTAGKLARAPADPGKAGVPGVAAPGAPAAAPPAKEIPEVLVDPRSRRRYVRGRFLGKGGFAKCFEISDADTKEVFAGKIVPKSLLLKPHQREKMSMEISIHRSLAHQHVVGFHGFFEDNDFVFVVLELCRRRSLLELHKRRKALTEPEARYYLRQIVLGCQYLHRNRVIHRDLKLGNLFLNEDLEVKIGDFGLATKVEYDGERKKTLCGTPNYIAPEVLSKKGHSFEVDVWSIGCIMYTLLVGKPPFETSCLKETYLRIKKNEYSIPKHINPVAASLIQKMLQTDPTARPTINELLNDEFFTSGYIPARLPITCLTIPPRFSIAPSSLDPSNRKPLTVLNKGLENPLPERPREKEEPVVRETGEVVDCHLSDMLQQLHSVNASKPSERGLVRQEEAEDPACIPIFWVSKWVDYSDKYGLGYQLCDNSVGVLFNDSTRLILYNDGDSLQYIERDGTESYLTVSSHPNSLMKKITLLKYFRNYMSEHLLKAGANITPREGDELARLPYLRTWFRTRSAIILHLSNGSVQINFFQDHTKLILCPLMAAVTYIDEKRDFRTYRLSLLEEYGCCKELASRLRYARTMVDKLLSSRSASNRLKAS

Q: With `COc1cc2c(NC3CCN(C)CC3)cc(-c3ccc(C)o3)nc2cc1OCCCN1CCCC1` [CM-272, 6-methoxy-2-(5-methyl-2-furyl)-N-(1-methyl-4-piperidyl)-7-(3-pyrrolidin-1-ylpropoxy)quinolin-4-amine] as the molecule, how does the remaining binding at 10 µM [1] read?
A: The remaining binding at 10 µM was 88%.

Q: And the remaining binding at 10 µM [2, 29]?
A: The remaining binding at 10 µM was 0%.

Q: What about the Kd ([2]; KINOMEscan) of the same molecule?
A: The Kd was 1.1 µM.

Q: What about the remaining binding at 10 µM [3] of the same molecule?
A: Its remaining binding at 10 µM is 23%.

Q: What about the remaining binding at 10 µM [4] of the same molecule?
A: Its remaining binding at 10 µM is 5.5%.

Q: And the remaining binding at 10 µM [5]?
A: Its remaining binding at 10 µM is 100%.

Q: What about the remaining binding at 10 µM [6] of the same molecule?
A: The remaining binding at 10 µM was 81%.

Q: What about the remaining binding at 10 µM [7] of the same molecule?
A: The remaining binding at 10 µM was 100%.

Q: And the remaining binding at 10 µM [8]?
A: The remaining binding at 10 µM was 22%.

Q: What about the remaining binding at 10 µM [9] of the same molecule?
A: Its remaining binding at 10 µM is 100%.

Q: And the remaining binding at 10 µM [10]?
A: Its remaining binding at 10 µM is 96%.

Q: What about the remaining binding at 10 µM [11] of the same molecule?
A: Its remaining binding at 10 µM is 91%.

Q: And the remaining binding at 10 µM [12]?
A: Its remaining binding at 10 µM is 96%.

Q: And the remaining binding at 10 µM [13]?
A: Its remaining binding at 10 µM is 100%.

Q: And the remaining binding at 10 µM [14]?
A: Its remaining binding at 10 µM is 100%.

Q: What about the remaining binding at 10 µM [15] of the same molecule?
A: The remaining binding at 10 µM was 95%.

Q: And the remaining binding at 10 µM [16]?
A: The remaining binding at 10 µM was 31%.

Q: What about the remaining binding at 10 µM [17] of the same molecule?
A: Its remaining binding at 10 µM is 53%.

Q: What about the remaining binding at 10 µM [18] of the same molecule?
A: The remaining binding at 10 µM was 61%.

Q: What about the remaining binding at 10 µM [19] of the same molecule?
A: The remaining binding at 10 µM was 100%.

Q: What about the remaining binding at 10 µM [20] of the same molecule?
A: The remaining binding at 10 µM was 100%.

Q: What about the remaining binding at 10 µM [21, 29] of the same molecule?
A: The remaining binding at 10 µM was 0.3%.

Q: What about the Kd ([21]; KINOMEscan) of the same molecule?
A: The Kd was 1.7 µM.

Q: What about the remaining binding at 10 µM [22] of the same molecule?
A: Its remaining binding at 10 µM is 67%.

Q: And the remaining binding at 10 µM [23]?
A: Its remaining binding at 10 µM is 100%.

Q: And the remaining binding at 10 µM [24]?
A: Its remaining binding at 10 µM is 95%.

Q: What about the remaining binding at 10 µM [25] of the same molecule?
A: Its remaining binding at 10 µM is 81%.

Q: What about the GI50 [26] of the same molecule?
A: The GI50 was 0.842 µM.

Q: What about the inhibition at 10 µM [27] of the same molecule?
A: Its inhibition at 10 µM is 0%.

Q: What about the GI50 [28] of the same molecule?
A: Its GI50 is 0.577 µM.
